Test results taken from patent US20220267310A1, “QUINAZOLINE AND CINNOLINE DERIVATIVES AS DNA-PK INHIBITOR” (MEDSHINE DISCOVERY INC., priority 2019, published 2022).

Test system: human head and neck cancer FaDu cell subcutaneous xenograft tumor
Test: FaDu subcutaneous xenograft, mono and combination with radiotherapy
Assay type: in vivo
Conditions: for Tumor volume (mm^3), 3 days after administration: day 3; for Tumor volume (mm^3), 3 days after administration / Tumor volume (mm^3), 7 days after administration / Tumor volume (mm^3), 10 days after administration / Tumor volume (mm^3), 14 days after administration / Tumor volume (mm^3), 17 days after administration / Tumor volume (mm^3), 23 days after administration / Tumor volume (mm^3), 28 days after administration / Tumor volume (mm^3), 31 days after administration / Tumor volume (mm^3), 35 days after administration / Tumor volume (mm^3), 42 days after administration / Tumor volume (mm^3), 49 days after administration / Tumor volume (mm^3), 56 days after administration / Tumor volume (mm^3), 63 days after administration / Tumor volume (mm^3), 70 days after administration / Tumor volume (mm^3) (0th day) / Tumor volume (mm^3) (21th day): average ± SEM, n = 8; for Tumor volume (mm^3), 7 days after administration: day 7; for Tumor volume (mm^3), 10 days after administration: day 10; for Tumor volume (mm^3), 14 days after administration: day 14; for Tumor volume (mm^3), 17 days after administration: day 17; for Tumor volume (mm^3), 23 days after administration: day 23; for Tumor volume (mm^3), 28 days after administration: day 28; for Tumor volume (mm^3), 31 days after administration: day 31; for Tumor volume (mm^3), 35 days after administration: day 35; for Tumor volume (mm^3), 42 days after administration: day 42; for Tumor volume (mm^3), 49 days after administration: day 49; for Tumor volume (mm^3), 56 days after administration: day 56; for Tumor volume (mm^3), 63 days after administration: day 63; for Tumor volume (mm^3), 70 days after administration: day 70; for RTV (21th day) / T/C (%) (21th day) / TGI (%) (21th day) / Tumor volume (mm^3) (0th day) / Tumor volume (mm^3) (21th day): PO; for animal death or euthanasia during the study: one animal of the group
Procedure: Experiment purpose: The antitumor activity of the tested compound was evaluated in a nude mouse model of human head and neck cancer FaDu cell subcutaneous xenograft tumor
Experimental animals: Female BALB/c nude mice, 6-8 weeks old, weighing 17-23 grams; supplier: B&K Universal Group Limited
Human head and neck cancer FaDu cell (ATCC, Manassas. Virginiaite, item number: HTB-43) was cultured in vitro in a culture condition of EMEM medium with 10% fetal bovine serum, 100 U/mL penicillin and 100 μg/mL streptomycin, incubated at 37° C. and 5% CO2. Conventional digestive treatment passage was carried out using pancreatic enzyme—EDTA twice a week.
Each mouse was subcutaneously inoculated with 0.1 mL ([…]) FaDu cells at the right dorsal position, and when the average tumor volume reaches about 106 mm^3, randomization was used for initiating drug administration.
The tested compound was prepared as a 5 mg/mL clarified solution with 10% DMSO+50% polyethylene glycol 400+40% water as the solvent. Preparation was conducted every three days.
The experimental indicators refers to study whether tumor growth was inhibited, delayed, or cured. Tumor diameter was measured twice a week with a vernier caliper. The calculation formula of the tumor volume was V=0.5a×b^2, and a and b represent the long diameter and short diameter of the tumor, respectively.
The antitumor efficacy of the compound was evaluated by TGI (%) or relative tumor proliferation rate T/C (%). TGI (%) reflects the tumor growth inhibition rate. The calculation of TGI (%): TGI (%)=[1−(average tumor volume at the end of administration of a certain treatment group−average tumor volume at the beginning of administration of the treatment group)/(average tumor volume at the end of treatment in solvent control group−average tumor volume at the beginning of treatment in solvent control group)]×control group.
Relative tumor proliferation rate T/C (%): the calculation formula was as follows: T/C %=[…] TRTV/CRTV group (TRTV: treatment group RTV: CRTV: negative control group RTV). According to results of tumor measurement. Relative Tumor Volume (RTV) was calculated by the formula RTV=Vt/V0, where V0 was the average tumor volume measured in group administration (i.e., d0), and Vt was the average tumor volume measured in a certain single measurement. TRTV and CRTV collect data on the same day.
Statistic analysis includes an average value and a standard error (SEM) of tumor volume at each time point for each group. […] If there was no significant difference in F value, Dunnet (2-sided) method was applied to analysis. All data were analyzed using SPSS 17.0. P<0.05 was considered as having a significant difference.

[1] = 25 mg/kg, QD + radiotherapy 2 Gy
[2] = 50 mg/kg, QD + radiotherapy 2 Gy
[3] = 50 mg/kg, QD + radiotherapy 2 Gy, 5-day radiotherapy, 2-day withdrawal

In the case of COc1ccc(C(O)c2cc(-c3cnnc4c(F)c(N5CCOCC5)cc(F)c34)c(F)cc2Cl)nn1 (single isomer, unassigned) [Embodiment 19], the “Tumor volume (mm^3), 3 days after administration” value (shortened to “Tumor volume (mm^3), 3 days”) (25 mg/kg + 2 Gy) is reported as 172 ± 16 mm^3, the “Tumor volume (mm^3), 7 days after administration” value (shortened to “Tumor volume (mm^3), 7 days”) (25 mg/kg + 2 Gy) is reported as 136 ± 11 mm^3 and the “Tumor volume (mm^3), 10 days after administration” value (shortened to “Tumor volume (mm^3), 10 days”) (25 mg/kg + 2 Gy) is reported as 76 ± 11 mm^3. The “Tumor volume (mm^3), 14 days after administration” value (“Tumor volume (mm^3), 14 days” below) (25 mg/kg + 2 Gy) was 29 ± 5 mm^3, the “Tumor volume (mm^3), 17 days after administration” value (from here on “Tumor volume (mm^3), 17 days”) (25 mg/kg + 2 Gy) was 11 ± 3 mm^3 and the “Tumor volume (mm^3), 23 days after administration” value (shortened to “Tumor volume (mm^3), 23 days”) (25 mg/kg + 2 Gy) was 1 ± 1 mm^3. For the same compound, the “Tumor volume (mm^3), 28 days after administration” value (“Tumor volume (mm^3), 28 days” below) (25 mg/kg + 2 Gy) was 0 ± 0 mm^3, the “Tumor volume (mm^3), 31 days after administration” value (from here on “Tumor volume (mm^3), 31 days”) (25 mg/kg + 2 Gy) was 0 ± 0 mm^3 and the “Tumor volume (mm^3), 35 days after administration” value (shortened to “Tumor volume (mm^3), 35 days”) (25 mg/kg + 2 Gy) was 0 ± 0 mm^3. For the same compound, the “Tumor volume (mm^3), 42 days after administration” value (“Tumor volume (mm^3), 42 days” below) (25 mg/kg + 2 Gy) was 0 ± 0 mm^3, the “Tumor volume (mm^3), 49 days after administration” value (from here on “Tumor volume (mm^3), 49 days”) (25 mg/kg + 2 Gy) was 0 ± 0 mm^3 and the “Tumor volume (mm^3), 56 days after administration” value (shortened to “Tumor volume (mm^3), 56 days”) (25 mg/kg + 2 Gy) was 0 ± 0 mm^3. For the same compound, the “Tumor volume (mm^3), 63 days after administration” value (“Tumor volume (mm^3), 63 days” below) (25 mg/kg + 2 Gy) was 0 ± 0 mm^3, the “Tumor volume (mm^3), 70 days after administration” value (from here on “Tumor volume (mm^3), 70 days”) (25 mg/kg + 2 Gy) was 0 ± 0 mm^3 and the “RTV (21th day)” value [1] was 0.01 ± 0.01. For the same compound, the “T/C (%) (21th day)” value [1] was 0.08%, the “TGI (%) (21th day)” value [1] was 108.61% and the “Tumor volume (mm^3) (0th day)” value (25 mg/kg, QD + radiotherapy 2 Gy, 5-day radiotherapy, 2-day withdrawal) was 106 ± 6 mm^3. For the same compound, the “Tumor volume (mm^3) (21th day)” value [1] was 1 ± 1 mm^3, the “Tumor volume (mm^3), 3 days” value (50 mg/kg + 2 Gy) was 175 ± 14 mm^3 and the “Tumor volume (mm^3), 7 days” value (50 mg/kg + 2 Gy) was 155 ± 17 mm^3. The “Tumor volume (mm^3), 10 days” value (50 mg/kg + 2 Gy) was 97 ± 16 mm^3, the “Tumor volume (mm^3), 14 days” value (50 mg/kg + 2 Gy) was 45 ± 10 mm^3 and the “Tumor volume (mm^3), 17 days” value (50 mg/kg + 2 Gy) was 12 ± 5 mm^3. The “Tumor volume (mm^3), 23 days” value (50 mg/kg + 2 Gy) was 1 ± 1 mm^3, the “Tumor volume (mm^3), 28 days” value (50 mg/kg + 2 Gy) was 1 ± 0 mm^3 and the “Tumor volume (mm^3), 31 days” value (50 mg/kg + 2 Gy) was 0 ± 0 mm^3. The “Tumor volume (mm^3), 35 days” value (50 mg/kg + 2 Gy) was 0 ± 0 mm^3, the “Tumor volume (mm^3), 42 days” value (50 mg/kg + 2 Gy) was 0 ± 0 mm^3 and the “Tumor volume (mm^3), 49 days” value (50 mg/kg + 2 Gy) was 0 ± 0 mm^3. The “Tumor volume (mm^3), 56 days” value (50 mg/kg + 2 Gy) was 0 ± 0 mm^3, the “Tumor volume (mm^3), 63 days” value (50 mg/kg + 2 Gy) was 0 ± 0 mm^3 and the “Tumor volume (mm^3), 70 days” value (50 mg/kg + 2 Gy) was 0 ± 0 mm^3. For the same compound, the “animal death or euthanasia during the study” value (50 mg/kg alone) was “euthanized 22 days after the start of administration”, the “Tumor volume (mm^3), 3 days” value (50 mg/kg alone) was 189 ± 18 mm^3 and the “Tumor volume (mm^3), 7 days” value (50 mg/kg alone) was 375 ± 28 mm^3. For the same compound, the “Tumor volume (mm^3), 10 days” value (50 mg/kg alone) was 568 ± 50 mm^3, the “Tumor volume (mm^3), 14 days” value (50 mg/kg alone) was 946 ± 108 mm^3 and the “Tumor volume (mm^3), 17 days” value (50 mg/kg alone) was 1120 ± 131 mm^3. The “Tumor volume (mm^3), 23 days” value (50 mg/kg alone) was 1808 ± 372 mm^3, the “RTV (21th day)” value [2] was 0.01 ± 0.01 and the “T/C (%) (21th day)” value [2] was 0.08%. For the same compound, the “TGI (%) (21th day)” value [2] was 108.64%, the “Tumor volume (mm^3) (0th day)” value [3] was 106 ± 5 mm^3 and the “Tumor volume (mm^3) (21th day)” value [2] was 1 ± 1 mm^3. For the same compound, the “RTV (21th day)” value (50 mg/kg, QD, alone) was 14.18 ± 2.04, the “T/C (%) (21th day)” value (50 mg/kg, QD, alone) was 114.35% and the “TGI (%) (21th day)” value (50 mg/kg, QD, alone) was −15.37%. For the same compound, the “Tumor volume (mm^3) (0th day)” value (50 mg/kg, QD, alone) was 106 ± 5 mm^3 and the “Tumor volume (mm^3) (21th day)” value (50 mg/kg, QD, alone) was 1501 ± 242 mm^3.
With COc1ccc([C@@H](O)c2cc(-c3nncc4cc(N5CCOCC5)ccc34)c(F)cc2Cl)nn1 [Embodiment M3814, reference compound] the “Tumor volume (mm^3), 3 days” value (50 mg/kg + 2 Gy) was 168 ± 10 mm^3, the “Tumor volume (mm^3), 7 days” value (50 mg/kg + 2 Gy) was 106 ± 19 mm^3 and the “Tumor volume (mm^3), 10 days” value (50 mg/kg + 2 Gy) was 68 ± 16 mm^3. The “Tumor volume (mm^3), 14 days” value (50 mg/kg + 2 Gy) was 25 ± 9 mm^3, the “Tumor volume (mm^3), 17 days” value (50 mg/kg + 2 Gy) was 12 ± 4 mm^3 and the “Tumor volume (mm^3), 23 days” value (50 mg/kg + 2 Gy) was 1 ± 1 mm^3. For the same compound, the “Tumor volume (mm^3), 28 days” value (50 mg/kg + 2 Gy) was 1 ± 1 mm^3, the “Tumor volume (mm^3), 31 days” value (50 mg/kg + 2 Gy) was 0 ± 0 mm^3 and the “Tumor volume (mm^3), 35 days” value (50 mg/kg + 2 Gy) was 0 ± 0 mm^3. The “Tumor volume (mm^3), 42 days” value (50 mg/kg + 2 Gy) was 0 ± 0 mm^3, the “Tumor volume (mm^3), 49 days” value (50 mg/kg + 2 Gy) was 0 ± 0 mm^3 and the “Tumor volume (mm^3), 56 days” value (50 mg/kg + 2 Gy) was 0 ± 0 mm^3. For the same compound, the “Tumor volume (mm^3), 63 days” value (50 mg/kg + 2 Gy) was 0 ± 0 mm^3, the “Tumor volume (mm^3), 70 days” value (50 mg/kg + 2 Gy) was 0 ± 0 mm^3 and the “animal death or euthanasia during the study” value (50 mg/kg alone) was “found dead on day 23 after group administration”. The “Tumor volume (mm^3), 3 days” value (50 mg/kg alone) was 167 ± 20 mm^3, the “Tumor volume (mm^3), 7 days” value (50 mg/kg alone) was 322 ± 35 mm^3 and the “Tumor volume (mm^3), 10 days” value (50 mg/kg alone) was 502 ± 48 mm^3. The “Tumor volume (mm^3), 14 days” value (50 mg/kg alone) was 752 ± 64 mm^3, the “Tumor volume (mm^3), 17 days” value (50 mg/kg alone) was 997 ± 109 mm^3 and the “Tumor volume (mm^3), 23 days” value (50 mg/kg alone) was 1831 ± 254 mm^3. For the same compound, the “RTV (21th day)” value [2] was 0.03 ± 0.02, the “T/C (%) (21th day)” value [2] was 0.24% and the “TGI (%) (21th day)” value [2] was 108.46%. The “Tumor volume (mm^3) (0th day)” value [3] was 106 ± 5 mm^3, the “Tumor volume (mm^3) (21th day)” value [2] was 3 ± 2 mm^3 and the “RTV (21th day)” value (50 mg/kg, QD, alone) was 12.35 ± 1.10. For the same compound, the “T/C (%) (21th day)” value (50 mg/kg, QD, alone) was 99.60%, the “TGI (%) (21th day)” value (50 mg/kg, QD, alone) was −0.43% and the “Tumor volume (mm^3) (0th day)” value (50 mg/kg, QD, alone) was 106 ± 5 mm^3. For the same compound, the “Tumor volume (mm^3) (21th day)” value (50 mg/kg, QD, alone) was 1320 ± 174 mm^3.
